In patent US7521182B2, “Selection system containing non-antibiotic resistance selection marker” (priority 2003, dated 2009):

How the values were obtained:
Format in all cases: cell-based, E. coli
AG1ΔaraD = test: Testing of arabinose sensitivity (M9 medium with glycerol, overnight culture, OD600); conditions: for AG1ΔaraD OD600: overnight at 37° C.
Experimental: (§1) The arabinose sensitivity was tested on the produced AG1ΔaraD and JM109ΔaraD strains. One colony of AG1ΔaraD and one colony of JM109ΔaraD were each inoculated into 2 ml LB. The cultures were grown for 8 hours, diluted 1:100 into M9 medium containing 0.2% glycerol, 25 μg/ml kanamycin, 0.01% thiamine (0.05% proline for JM109ΔaraD) and different concentrations of L-arabinose were added in the growth medium. The cultures were grown overnight at 37° C. in shaker incubator and OD600 was measured (Table 1).

JM109ΔaraD = test: as above; conditions: for JM109ΔaraD OD600: overnight at 37° C.
Experimental: as §1

[1] = system: AG1ΔaraD, DH5alphaT1 ΔaraD and JM109ΔaraD; test: Arabinose sensitivity at lower concentrations of L-arabinose (FIG. 18)
Experimental: as §1
The arabinose sensitivity was further tested on AG1ΔaraD, DH5alphaT1 ΔaraD and JM109ΔaraD as above but using lower concentrations of L-arabinose.

[2] = system: DH5alphaT1 ΔaraDΔulaF ΔsgbE; test: Testing of arabinose sensitivity (M9 medium with 0.5% yeast extract, OD600)
Experimental: (§2) The arabinose sensitivity was tested on the E. coli DH5alphaT1 ΔaraDΔulaFΔsgbE and AG1ΔaraDΔulaFΔsgbE strains produced and compared to those of E. coli DH5alphaT1ΔaraD and AG1ΔaraD strains. One colony of each strain was inoculated into 2 ml of M9 medium containing 0.5% yeast extract, 25 μg/ml of kanamycin, 0.2% glucose only or 0.2% or 2% L-arabinose, respectively.

AG1 ΔaraD = test: as above
Experimental: as §2

DH5alphaT1 ΔaraD = test: as above
Experimental: as §2

AG1ΔaraD ΔulaFΔsgbE = test: as above
Experimental: as §2

[3] = system: strains with intact araD gene; test: L-arabinose sensitivity in M9 and yeast extract medium (FIG. 19); conditions: 0,2% and 2% arabinose, overnight at 37° C.
Experimental: (§3) Additionally the L-arabinose sensitivity was tested in M9 and yeast extract medium with different glucose and arabinose concentrations (0.2% glucose, 0.2% arabinose, 2% arabinose). The cultures were incubated at 37° C. in a shaker incubator overnight. Then the OD600 was measured to quantitate the cell density.

ΔaraD strains = test: as above; conditions: 0,2% and 2% arabinose, overnight at 37° C.
Experimental: as §3

[4] = system: host deficient of the araD gene; test: Amount of arabinose in the growth medium for selection
From the text: Any growth medium suitable for culturing E. coli cells can be used. For commercial production the growth medium will naturally be optimized in terms of the yield. Examples of suitable growth media are commercially available growth media, such as M9 and LB (available from several manufacturers, such as Fermentas, Lithuania). The amount of arabinose added in the growth medium is not critical but naturally arabinose should be present in an amount that is sufficient for the total culturing period. As low amount as 0.1% has been found sufficient for the selection. Typically arabinose is added to the medium in an amount of about 0.1% to about 2.0%, preferably in an amount of about 0.2% to about 1,0%, most preferably 0.2% to about 0.5%. However the effect of L-arabinose is observed at concentrations as low as 0.01% and L-arabinose can be added up to 5% in the growth medium. In a special embodiment, where L-arabinose is used both as a selecting agent and as a limited carbon source, 0.2% of L-arabinose is a suitable amount to be added into the growth medium.

## O=C[C@H](O)[C@@H](O)[C@@H](O)CO [L-arabinose]
AG1ΔaraD; 0.1% L-arabinose
  AG1ΔaraD OD600: 0.03
AG1ΔaraD; 0.2% L-arabinose
  AG1ΔaraD OD600: 0.030
AG1ΔaraD; 0.5% L-arabinose
  AG1ΔaraD OD600: 0.030
AG1ΔaraD; 1% L-arabinose
  AG1ΔaraD OD600: 0.024
AG1ΔaraD; 2% L-arabinose
  AG1ΔaraD OD600: 0.017
AG1ΔaraD; Table 1
  amount of L-arabinose enough to inhibit the growth: 0.1%
JM109ΔaraD; 0.1% L-arabinose
  JM109ΔaraD OD600: 0.03
JM109ΔaraD; 0.2% L-arabinose
  JM109ΔaraD OD600: 0.026
JM109ΔaraD; 0.5% L-arabinose
  JM109ΔaraD OD600: 0.020
JM109ΔaraD; 1% L-arabinose
  JM109ΔaraD OD600: 0.025
JM109ΔaraD; 2% L-arabinose
  JM109ΔaraD OD600: 0.021
JM109ΔaraD; Table 1
  amount of L-arabinose enough to inhibit the growth: 0.1%
[1]
  amount of L-arabinose enough to inhibit the growth: 0.0005%
[2]; 0.2% L-arabinose
  OD600 Glc + 0.2% L-arabinose: 0.75
[2]; 2% L-arabinose
  OD600 Glc + 2% L-arabinose: 0.28
AG1 ΔaraD; 0.2% L-arabinose
  OD600 Glc + 0.2% L-arabinose: 0.82
AG1 ΔaraD; 2% L-arabinose
  OD600 Glc + 2% L-arabinose: 0.26
DH5alphaT1 ΔaraD; 0.2% L-arabinose
  OD600 Glc + 0.2% L-arabinose: 0.95
DH5alphaT1 ΔaraD; 2% L-arabinose
  OD600 Glc + 2% L-arabinose: 0.35
AG1ΔaraD ΔulaFΔsgbE; 0.2% L-arabinose
  OD600 Glc + 0.2% L-arabinose: 0.82
AG1ΔaraD ΔulaFΔsgbE; 2% L-arabinose
  OD600 Glc + 2% L-arabinose: 0.35
[3]
  effect on growth of strains with intact araD gene: not inhibited
ΔaraD strains
  effect on growth of the ΔaraD strains: inhibited the growth
[4]
  amount of arabinose found sufficient for the selection: 0.1%
  concentration at which the effect of L-arabinose is observed: 0.01%
